“Also recorded” adds a separate entry of the source.
Assays:
[1] = test system: murine oligodendrocyte precursor cells; assay: Differentiation of murine oligodendrocyte precursor cells (immunocytochemistry, qPCR); type: cell-based, murine (neonatal mice); conditions: for OPC differentiation after PDGF-a withdrawal: PDGF-a withdrawal plus ILA or T3; for OPC differentiation (CC1 expression): compared to control conditions or OPCs treated with PDGF-a
From the text: We tested the effect of several doses of indole lactate on differentiation of oligodendrocyte precursor cells isolated using immune-panning from neonatal mice.

[2] = test system: mouse model of demyelination (cuprizone); assay: Cuprizone model of demyelination, oral ILA in drinking water; type: in vivo, mice
Description: In subsequent experiments, we fed mice with 0.2% cuprizone for 5 weeks and then randomized them to ILA 2 mM in drinking water or acidified water as a control for 2 weeks. […] These observations provide evidence that oral administration of ILA promotes remyelination in vivo in a mouse model of demyelination.

[3] = test system: experimental autoimmune encephalomyelitis; assay: Experimental autoimmune encephalomyelitis, indole lactate IP; type: in vivo, Mice (C57/BL6); conditions: for Disease severity (EAE): p<0.0001
From the text: (§1) Mice (C57/BL6, 8-9 week old) were immunized with MOG35-55 peptide and CFA and received IP injection of PTX on day 0 and 2. […] Mice were weighed and scored daily using the following scale (0-normal, 1-limp tail, 2-hind-limb weakness, 3-hind-limb paralysis, 4-fore-limb weakness, 5-death).

[4] = test system: gut microbiota; assay: Gut microbiota in EAE mice by 16s rRNA sequencing; type: in vivo
From the text: We examined the change in the gut microbiota using 16s rRNA sequencing at baseline, peak of disease and chronic disease in mice receiving ILA or vehicle orally.

[5] = test system: Murine MOG specific T cells; assay: T cell proliferation, activation and Th17 polarization by flow cytometry; type: cell-based, murine (2D2 TCR transgenic C57/BL6 mice)
Description: Murine MOG specific T cells were isolated and stimulated with […] Th17 polarizing conditions for 72 hours followed by flow-cytometry to analyze viability, proliferation and Th17 polarization in presence of vehicle or varying doses of ILA;
T cells were isolated from spleen and lymph nodes of 2D2 TCR transgenic C57/BL6 mice using negative selection (STEMCELL CD4 T cell isolation kit). T cells were then cultured in c-RPMI with MOG35-55 peptide in the presence of irradiated antigen presenting cells with or without additional cytokines to polarize the cells to a Th17 phenotype for 72 hours and then underwent flow-cytometry to analyze proliferation and Th17 polarization.

[6] = test system: OPCs from wild type (WT) mice; assay: OPC differentiation in OPCs from WT mice; type: cell-based
[7] = test system: human ES derived OPCs; assay: OPC differentiation of human ES derived OPCs with AhR antagonist; type: cell-based; conditions: small molecule AhR antagonist
From the text: We also tested the effects of blocking AhR signaling using a small molecules AhR antagonist.

[8] = test system: Arylhydrocarbon Receptor (AhR); assay: CYP1B1 (AhR responsive gene) expression in human ES derived OPCs, quantitative PCR; type: cell-based
From the text: We noted presence of AhR in Olig2+ and PDGFRα+ cells confirming that AhR is present in oligodendrocyte precursor cells. We also obtained RNA from human ES derived OPCs that had been treated with either vehicle or two different doses of ILA for 5 days.

[9] = test system: human embryonic stem cell derived oligodendrocyte precursor cells; assay: Differentiation of human embryonic stem cell derived oligodendrocyte precursor cells (luciferase under MBP promoter); type: cell-based
From the text: We also tested the effect of indole lactate on differentiation of human embryonic stem cell derived oligodendrocyte precursor cells. In this system, the cells produce luciferase under control of the promoter for MBP. Thus, OPC differentiation can be measured using the quantity of luciferase produced by cells.

[10] = test system: experimental autoimmune encephalomyelitis; assay: Experimental autoimmune encephalomyelitis, oral indole lactate; type: in vivo, Mice (C57/BL6); conditions: for severity of EAE: oral, ILA 2 mM in drinking water from day 7 post-immunization, 3 weeks, p<0.0001 vs vehicle
Description: as §1
We subsequently performed additional experiments in which we induced EAE using the same paradigm, however at day 7 post-immunization mice were randomized to receive ILA orally in drinking water (ILA 2 mM) or acidified water (adjusted to a similar pH) for the next 3 weeks. At four weeks post-immunization mice were euthanized and tissues were collected and processed for immunohistochemistry. We stained sections of the spinal cord to assess for extent of demyelination and for infiltration of immune cells.
Additionally, we repeated experiments and euthanized mice at the peak of disease to obtain spinal cord tissues for flow cytometric analyses.

[11] = test system: OPCs from Ahr KO mice; assay: OPC differentiation in OPCs from constitutive Ahr-KO mice; type: cell-based; conditions: listed as ILA
From the text: We further evaluated the mechanism of ILA using OPCs from mice that lack the Ahr gene—constitutive Ahr-KO mice.

[12] = test system: Cuprizone-induced model of demyelination; assay: Cuprizone-induced model of demyelination, ILA 20 or 40 mg/kg; type: in vivo, Mice; conditions: 0.2% Cuprizone 4 weeks then regular chow one week
Description: We tested the ability of indole lactate to promote remyelination in the Cuprizone-induced model of demyelination. Mice were fed with 0.2% Cuprizone for 4 weeks to induce demyelination and then switched to regular chow for one week. At three weeks of Cuprizone feeding mice were randomized to treatment with ILA 20 mg/kg, ILA 40 mg/kg or vehicle for two weeks.

[13] = Circulating ILA and IAA levels with oral ILA supplementation; type: in vivo, mice
From the text: FIG. 12A, FIG. 12B, FIG. 12C, FIG. 12D, FIG. 12E, FIG. 12F, FIG. 12G, FIG. 12H, and FIG. 12I show: FIG. 12A. Schematic of product of ILA and IAA and the change in levels with ILA supplementation in naïve mice. FIG. 12B. Clinical scores and plasma ILA and IAA levels at end of experiment in mice on vehicle or oral ILA supplementation. FIG. 12C. Change in ILA/IAA ratio. FIG. 12D. Correlation of ILA/IAA ratio and cumulative EAE score. FIG. 12E. Gut microbiota composition in vehicle and ILA groups at various time points (n=10 each group). FIG. 12F. Change in alpha diversity over the course of EAE.

[14] = test system: macrophages; assay: Nitric oxide production in macrophages; type: cell-based
[15] = ILA 2 mM in drinking water, 2 weeks, vs vehicle
[16] = spinal cord, four weeks post-immunization, oral ILA 2 mM in drinking water
[17] = spinal cord, peak of disease, oral ILA

## N[C@@H](Cc1cc(I)c(Oc2ccc(O)c(I)c2)c(I)c1)C(=O)O [T3, reference compound]
[1]
  OPC differentiation after PDGF-a withdrawal: further potentiated

## O=C(O)C(O)Cc1c[nH]c2ccccc12 (stereo not drawn) [indole lactate, indole-3-lactic acid]
[2]; ILA 2 mM in drinking water, 2 weeks after 0.2% cuprizone 5 weeks, vs acidified water
  remyelination in the corpus callosum (black gold and fluoromyelin staining): significantly increased remyelination
[2]; [15]
  g ratio (scanning EM, corpus callosum): significantly lower g ratio
  proportion of myelinated axons (scanning EM, corpus callosum): higher proportion of myelinated axons
[2]; oral ILA vs vehicle
  proportion of remyelinated axons (electron micrographs, corpus callosum): higher proportion of remyelinated axons
[3]; 10 and 20 mg/kg IP twice daily vs vehicle
  disease severity, dose dependence (EAE): significant dose-dependent reduction in disease severity
[3]; high-dose (20 mg/kg) IP twice daily vs vehicle
  Disease severity (EAE): reduced significantly
[3]; low-dose (10 mg/kg) IP twice daily vs vehicle
  Disease severity (EAE): reduced significantly
[4]; ILA supplementation
  acetylene degradation pathway (gut microbiota functional pathway): reduced acetylene degradation pathway
[4]; oral ILA vs vehicle
  change in multiple bacteria (abundance): differential change in multiple bacteria
[4]; oral ILA vs vehicle, baseline, peak and chronic disease
  overall composition of the gut microbiota: change in the overall composition of the gut microbiota
[5]; 72 hours
  T cell activation: reduces T cell proliferation, activation
[5]; MOG35-55 peptide, Th17 polarizing cytokines, 72 hours, dose-dependent
  Th17 polarization: reduced T cell proliferation and Th17 polarization in a dose-dependent manner
[5]; MOG35-55 peptide, irradiated antigen presenting cells, 72 hours, dose-dependent
  T cell proliferation: reduces T cell proliferation; also recorded: reduced T cell proliferation and Th17 polarization in a dose-dependent manner
[5]; in culture
  pro-inflammatory cytokine production from T cells: reduces T cell proliferation, activation and pro-inflammatory cytokine production; also recorded: reduced pro-inflammatory cytokine production
[6]
  OPC differentiation: promoted OPC differentiation
[7]; high doses of ILA
  effect of AhR antagonist on pro-differentiating effect of ILA: this effect was lost at high doses
[7]; low doses of ILA, listed as ILA
  pro-differentiating effect of ILA in presence of AhR antagonist: an AhR inhibitor reverses the effects of ILA on OPC differentiation; also recorded: the AhR antagonist blocked the pro-differentiating effects
[8]; high-dose ILA
  CYP1B1 expression: CYP1B1 expression increased
[8]; two doses of ILA, 5 days, vs vehicle, dose-response relationship
  expression of CYP1B1 (AhR responsive gene): increased expression of CYP1B1
[9]; 100 μM
  oligodendrocyte precursor cell differentiation based on production of luciferase (marker of MBP expression): promoted oligodendrocyte precursor cell differentiation
[9]; 300 μM
  oligodendrocyte precursor cell differentiation based on production of luciferase (marker of MBP expression): promoted oligodendrocyte precursor cell differentiation
[9]; ILA treatment conditions, dose-dependent
  OPC differentiation measured by Luciferase release: significant increase in OPC differentiation
[10]; oral indole lactate vs vehicle
  immune cell infiltration on IHC and flow cytometry analysis: reduction in immune cell infiltration
[10]
  severity of EAE: reduced significantly
[10]; listed as ILA
  severity of EAE: reduced severity of EAE
[10]; [16]
  extent of demyelination on IHC: reduced extent of demyelination
  immune cell infiltration on IHC: reduced extent of demyelination and immune cell infiltration
[10]; [17]
  iNOS producing inflammatory macrophages (flow cytometry): shift towards less iNOS producing inflammatory macrophages
  infiltration of T cells and macrophages (flow cytometry): reduced infiltration of T cells and macrophages
[1]; ILA 150 μM vs vehicle
  proportion of Olig2 and CC1 double-positive cells: significantly higher proportion
[1]; ILA 300 μM vs vehicle
  proportion of Olig2 and CC1 double-positive cells: significantly higher proportion
[1]; ILA 300 μM with low dose T3 compared to T3 alone
  expression of MBP (qPCR): significantly higher expression
[1]
  OPC differentiation after PDGF-a withdrawal: further potentiated
  OPC differentiation (CC1 expression): dose-dependent increase in OPC differentiation
[1]; listed as ILA
  OPC differentiation (CC1 expression): increased differentiation of OPCs
[11]
  OPC differentiation (pro-differentiation effect of ILA): loss of pro-differentiation effect; also recorded: the effect was lost
[12]; ILA 20 mg/kg for two weeks
  area of myelination in the corpus callosum (Black Gold staining): significant increase in area of myelination
[12]; ILA 40 mg/kg for two weeks
  area of myelination in the corpus callosum (Black Gold staining): significant increase in area of myelination
[13]; EAE mice
  ILA/IAA ratio: increase in ILA/IAA ratio
[13]; naïve mice
  circulating ILA levels: increased circulating ILA levels
[14]
  production of nitric oxide in macrophages: reduced pro-inflammatory cytokine production from T cells in culture and the production of nitric oxide in macrophages
